Experimental data: patent US20090082451A1, “USE OF THYROID HORMONE CONVERSION INHIBITORS” (Trustees of Boston University, priority 2004, published 2009)
Entries after “also recorded” stand apart in the source; their conditions may differ.

Tests used:
[1] = tested on: human epidermal keratinocytes; assay: Human epidermal keratinocyte proliferation, 3H-thymidine incorporation; assay type: cell-based; settings: overnight incubation; 10 μl of 1.5 mM stock per 500 μl medium; ±SEM
Experimental: Human keratinocytes were grown in primary culture on a support matrix derived from irradiated fibroblasts. When the cultures reached 40% confluence, the cells were fed basal medium alone for 24 hours and then incubated overnight in medium containing a test substance or sham. The cells were then treated with saturating quantities of ^3H-thymidine (New England Nuclear, Boston, Mass.); DNA was precipitated with 5% perchlorate and relative incorporated thymidine was assessed with a beta counter. Experiments were performed in quadruplicate and averaged. Results reported represent a minimum of three separate quadruplicate experiments.
(§1) The reagents used for tissue culture were iopanoic acid (Sigma, St. Louis, Mo.), sodium ipodate (Fitzgerald Industries International, Flanders, N.J.), and propranolol (Sigma, St. Louis, Mo.). Reagents were dissolved into modestly basic stock solutions to the following final concentrations: 0.025 mM NaOH, 0.2 M NaCl, 1.5 mM reagent. Each experiment used 10 μl of stock reagent (or sham) per 500 μl of medium. For FIGS. 13-18, the “low” concentration is 3 μM for each reagent, and the “high” concentration was 30 μM for each reagent.

[2] = tested on: Human prostate (HPV) cells; assay type: cell-based; settings: overnight incubation; 10 μl of 1.5 mM stock per 500 μl medium; ±SEM
Experimental: Human prostate (HPV) cells were grown under standard conditions. When the cultures reached 40% confluence, the cells were fed basal medium alone for 24 hours and then incubated overnight in medium containing a test substance or sham. The cells were then treated with saturating quantities of ^3H-thymidine (New England Nuclear, Boston, Mass.); DNA was precipitated with 5% perchlorate and relative incorporated thymidine was assessed with a beta counter. Experiments were performed in quadruplicate and averaged. Results reported represent a minimum of three separate quadruplicate experiments.
as §1

epidermal proliferation = assay: Topical iopanoic acid cream in mice: epidermal thickness and BrdU incorporation; assay type: in vivo, CD-1 mice
Experimental: A topical iopanoic acid (IOP) cream was prepared by mixing IOP (Sigma, St. Louis, Mo.) into a liposome vehicle (Novasome A, IGI inc., New Jersey) previously described (Safer 2001, Safer 2003, Safer 2005). Each mouse received 30 μl of the liposome vehicle applied directly to a 3×3 cm area of shaved skin on the animal's backs. The preparation was applied daily and not removed.
The treatment groups received cream containing 6 mg IOP daily. The control groups were treated with daily application of vehicle alone.
Five week old CD-1 mice were randomized into 2 groups (FIG. 1). The groups had 6 mice each and were evaluated in a crossover study. Each mouse in the crossover study was evaluated twice: once after a 6 mg daily IOP treatment and once after treatment with vehicle alone. Six mice received IOP first followed by a 3 month wash-out/healing completion period. The animals were then evaluated after treatment with topical vehicle alone. Six mice started with vehicle alone and received the IOP treatment after the 3 month wash-out/healing completion period.
All topically treated mice were caged separately to avoid animals receiving doses from their neighbors during grooming. The cream was applied to a midline cephalad region on the animals' backs to minimize the impact of personal grooming on dosing.
Epidermal proliferation was assessed by measuring both epidermal thickness and 5-bromo-2′-deoxyuridine (BrdU, Boehringer Mannheim, Mannheim, Germany) incorporation into DNA. At the completion of the protocols noted, animals were biopsied with full thickness dorsal skin samples were taken. Three hours prior to biopsy, each mouse had received intraperitoneal BrdU as previously described (Safer 2001). Skin samples were fixed in formalin and embedded in paraffin. From each paraffin block, […] sections were made and stained with hematoxylin and eosin (H&E). Epidermal thickness was measured in 10 random locations for each mouse. Additional 5 μm skin histology sections from the above paraffin blocks were stained for BrdU as previously described (Safer 2001). BrdU data are reported as the number of cell nuclei stained/[…] epidermis.

[3] = Serum total thyroxine (T4) by radioimmunoassay in topically treated mice; assay type: in vivo, CD-1 mice; settings: mice treated with IOP cream, relative to control mice; listed as IOP
Experimental: Serum total thyroxine levels were measured with a standard radioimmunoassay kit (ICN, Orangeburg, N.Y.). Unlike other thyroid hormone kits which use anti-mouse antibodies, the ICN kit uses anti-rabbit antibodies and avoids spuriously elevated readings in mice. Thyroid hormone levels for mice fall at the low end of the human range so the human standards included in the kit were used.

[4] = tested on: Opossum kidney (OK) cells; assay: Opossum kidney cell proliferation, 3H-thymidine incorporation; assay type: cell-based; settings: overnight incubation; 10 μl of 1.5 mM stock per 500 μl medium; ±SEM
Experimental: Opossum kidney (OK) cells were grown under standard conditions. When the cultures reached 40% confluence, the cells were fed basal medium alone for 24 hours and then incubated overnight in medium containing a test substance or sham. The cells were then treated with saturating quantities of ^3H-thymidine (New England Nuclear, Boston, Mass.); DNA was precipitated with 5% perchlorate and relative incorporated thymidine was assessed with a beta counter. Experiments were performed in quadruplicate and averaged. Results reported represent a minimum of three separate quadruplicate experiments.
as §1

[5] = tested on: Monkey kidney (CV-1) cells; assay: Monkey kidney cell proliferation, 3H-thymidine incorporation; assay type: cell-based; settings: overnight incubation; 10 μl of 1.5 mM stock per 500 μl medium; ±SEM
Experimental: Monkey kidney (CV-1) cells were grown under standard conditions. When the cultures reached 40% confluence, the cells were fed basal medium alone for 24 hours and then incubated overnight in medium containing a test substance or sham. The cells were then treated with saturating quantities of ^3H-thymidine (New England Nuclear, Boston, Mass.); DNA was precipitated with 5% perchlorate and relative incorporated thymidine was assessed with a beta counter. Experiments were performed in quadruplicate and averaged. Results reported represent a minimum of three separate quadruplicate experiments.
as §1

[6] = topical cream, 6 mg IOP daily, vs vehicle, p<0.05

## CCC(Cc1c(I)cc(I)c(N)c1I)C(=O)O (centres unmarked) [iopanoic acid]
[1]
  inhibition of proliferation of human epidermal keratinocytes relative to control cultures: 61±9%
[2]
  inhibition of proliferation of human prostate cells relative to control cultures: 26±4%
Epidermal proliferation; Group 1 mice: control vehicle first, then IOP (FIG. 2)
  epidermal proliferation: significantly diminished
Epidermal proliferation; Group 2 mice: IOP first, then control vehicle (FIG. 3)
  epidermal proliferation: significantly diminished
Epidermal proliferation; [6]
  less epidermal BrdU staining than control mice: 30%
  thinner epidermis than control mice: 20%
[3]
  serum T4 levels: remained steady; also recorded: not changed

## O=C(NCC(O)CO)c1c(I)c(C(=O)NCC(O)CO)c(I)c(N(CCO)C(=O)CO)c1I (centres unmarked) [ioversol]
[2]
  inhibition of proliferation of human prostate cells relative to control cultures: 22%

## CN(C)/C=N/c1c(I)cc(I)c(CCC(=O)[O-])c1I.[Na+] [ipodate sodium]
[1]
  inhibition of proliferation of human epidermal keratinocytes relative to control cultures: 14±6%
[2]
  inhibition of proliferation of human prostate cells relative to control cultures: 30±5%

## CC(C)NCC(O)COc1cccc2ccccc12 (centres unmarked) [propranolol]
[1]
  inhibition of proliferation of human epidermal keratinocytes relative to control cultures: 62±3%
[4]
  inhibition of proliferation of opossum kidney cells relative to control cultures: 88±10%
[5]
  inhibition of proliferation of monkey kidney cells relative to control cultures: 82±5%
[2]
  inhibition of proliferation of human prostate cells relative to control cultures: 84±8%
